Where two headings read alike, the source gives them in different places.
Key:
Experiment in all cases: KiNativ assay
Assay type in all cases: binding
ABL, ARG = conditions: H929 live cell
Description: (§1) Biochemical IC50s of the compounds of the present disclosure against various kinases were measured in a KiNativ assay. Compounds were screened in duplicate at 10 μM in H929 live cell. IC50 was measured via Mass spectroscopy (MS).

AKT1 = AKT1 (Homo sapiens (Human), UniProt P31749); conditions: H929 live cell
Description: as §1

BARK1 = BARK1 (Homo sapiens (Human), UniProt P25098); conditions: H929 live cell
Description: as §1

CDK7 = CDK7 (Homo sapiens (Human), UniProt P50613); conditions: H929 live cell
CDK7, sequence (P50613 whole entry): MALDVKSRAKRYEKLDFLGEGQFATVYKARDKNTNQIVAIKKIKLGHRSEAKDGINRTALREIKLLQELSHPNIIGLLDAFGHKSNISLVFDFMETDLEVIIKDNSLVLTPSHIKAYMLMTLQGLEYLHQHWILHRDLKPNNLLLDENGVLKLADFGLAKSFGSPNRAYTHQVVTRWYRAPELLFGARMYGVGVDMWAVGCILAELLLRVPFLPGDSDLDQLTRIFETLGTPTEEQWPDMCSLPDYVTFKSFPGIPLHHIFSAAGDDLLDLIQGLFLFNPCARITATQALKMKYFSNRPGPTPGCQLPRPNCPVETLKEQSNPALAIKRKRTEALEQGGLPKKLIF
CDK7, sequence (P51946 whole entry partner): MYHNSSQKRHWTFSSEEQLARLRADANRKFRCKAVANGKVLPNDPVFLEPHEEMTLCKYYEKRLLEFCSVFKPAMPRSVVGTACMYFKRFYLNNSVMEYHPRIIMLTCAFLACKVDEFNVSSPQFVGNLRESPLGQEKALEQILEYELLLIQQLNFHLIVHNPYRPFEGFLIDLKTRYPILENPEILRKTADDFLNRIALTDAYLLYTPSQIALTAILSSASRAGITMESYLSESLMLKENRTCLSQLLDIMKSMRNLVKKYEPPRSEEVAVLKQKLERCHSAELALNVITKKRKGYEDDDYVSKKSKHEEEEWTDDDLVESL
CDK7, sequence (P51948 whole entry partner): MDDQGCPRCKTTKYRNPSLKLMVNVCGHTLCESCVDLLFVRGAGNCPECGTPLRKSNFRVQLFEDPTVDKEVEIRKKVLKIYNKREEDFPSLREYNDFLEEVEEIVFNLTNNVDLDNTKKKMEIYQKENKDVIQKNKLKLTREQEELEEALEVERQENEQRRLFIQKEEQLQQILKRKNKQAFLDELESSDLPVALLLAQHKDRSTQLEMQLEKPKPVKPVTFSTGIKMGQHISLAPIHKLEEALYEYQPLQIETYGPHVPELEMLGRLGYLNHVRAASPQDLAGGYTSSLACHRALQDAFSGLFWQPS
Description: as §1

CSK = CSK (Homo sapiens (Human), UniProt P41240); conditions: H929 live cell
Description: as §1

CaMK1d = CaMK1d (Homo sapiens (Human), UniProt Q8IU85); conditions: H929 live cell
Description: as §1

[1] = test system: CaMK2a, CaMK2b, CaMK2d, CaMK2g; conditions: H929 live cell
Description: as §1

FYN, SRC, YES = conditions: H929 live cell
Description: as §1

GCK = GCK (Homo sapiens (Human), UniProt Q12851); conditions: H929 live cell, read-out: inhibition (10 μM)
Description: as §1

IRAK1 = IRAK1 (Homo sapiens (Human), UniProt P51617); conditions: H929 live cell
Description: as §1

JAK1 domain1 = JAK1 domain1 (Homo sapiens (Human), UniProt P23458); conditions: H929 live cell
JAK1 domain1, sequence (P23458 whole entry, the tested form may be a part): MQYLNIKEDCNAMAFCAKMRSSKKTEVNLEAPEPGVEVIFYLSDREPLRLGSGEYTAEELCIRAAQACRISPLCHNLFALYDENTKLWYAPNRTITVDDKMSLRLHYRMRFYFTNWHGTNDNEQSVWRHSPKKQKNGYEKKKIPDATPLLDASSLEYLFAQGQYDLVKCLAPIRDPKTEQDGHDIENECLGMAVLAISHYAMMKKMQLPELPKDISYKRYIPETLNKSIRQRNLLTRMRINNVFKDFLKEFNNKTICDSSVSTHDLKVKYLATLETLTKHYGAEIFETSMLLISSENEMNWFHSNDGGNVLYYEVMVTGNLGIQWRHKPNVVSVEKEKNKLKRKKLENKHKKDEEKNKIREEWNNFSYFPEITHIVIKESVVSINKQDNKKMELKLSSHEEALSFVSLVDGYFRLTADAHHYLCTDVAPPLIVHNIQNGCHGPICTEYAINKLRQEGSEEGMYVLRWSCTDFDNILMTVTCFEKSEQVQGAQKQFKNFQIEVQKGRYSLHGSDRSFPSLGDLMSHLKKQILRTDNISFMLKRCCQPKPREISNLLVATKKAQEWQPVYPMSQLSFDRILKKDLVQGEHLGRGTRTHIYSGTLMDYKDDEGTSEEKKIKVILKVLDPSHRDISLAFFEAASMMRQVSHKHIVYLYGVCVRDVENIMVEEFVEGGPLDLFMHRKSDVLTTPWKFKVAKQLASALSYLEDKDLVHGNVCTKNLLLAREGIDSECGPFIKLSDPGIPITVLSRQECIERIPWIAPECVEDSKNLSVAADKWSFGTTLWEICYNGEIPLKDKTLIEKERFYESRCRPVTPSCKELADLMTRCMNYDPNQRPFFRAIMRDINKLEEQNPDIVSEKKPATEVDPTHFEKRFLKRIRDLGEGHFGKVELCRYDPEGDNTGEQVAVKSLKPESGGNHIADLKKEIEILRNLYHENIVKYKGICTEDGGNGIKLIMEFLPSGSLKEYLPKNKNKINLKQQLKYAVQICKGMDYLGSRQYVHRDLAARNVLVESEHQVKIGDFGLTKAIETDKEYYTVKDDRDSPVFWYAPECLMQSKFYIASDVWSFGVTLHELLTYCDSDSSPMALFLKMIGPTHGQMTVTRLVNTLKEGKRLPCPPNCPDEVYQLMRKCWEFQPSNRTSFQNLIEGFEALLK
Description: as §1

KHS1 = KHS1 (Homo sapiens (Human), UniProt Q9Y4K4); conditions: H929 live cell
Description: as §1

KSR1, KSR2 = conditions: H929 live cell
Description: as §1

MAP2K6 = MAP2K6 (Homo sapiens (Human), UniProt P52564); conditions: H929 live cell
Description: as §1

MAP3K1 = MAP3K1 (Homo sapiens (Human), UniProt Q13233); conditions: H929 live cell
MAP3K1, sequence (Q13233 whole entry): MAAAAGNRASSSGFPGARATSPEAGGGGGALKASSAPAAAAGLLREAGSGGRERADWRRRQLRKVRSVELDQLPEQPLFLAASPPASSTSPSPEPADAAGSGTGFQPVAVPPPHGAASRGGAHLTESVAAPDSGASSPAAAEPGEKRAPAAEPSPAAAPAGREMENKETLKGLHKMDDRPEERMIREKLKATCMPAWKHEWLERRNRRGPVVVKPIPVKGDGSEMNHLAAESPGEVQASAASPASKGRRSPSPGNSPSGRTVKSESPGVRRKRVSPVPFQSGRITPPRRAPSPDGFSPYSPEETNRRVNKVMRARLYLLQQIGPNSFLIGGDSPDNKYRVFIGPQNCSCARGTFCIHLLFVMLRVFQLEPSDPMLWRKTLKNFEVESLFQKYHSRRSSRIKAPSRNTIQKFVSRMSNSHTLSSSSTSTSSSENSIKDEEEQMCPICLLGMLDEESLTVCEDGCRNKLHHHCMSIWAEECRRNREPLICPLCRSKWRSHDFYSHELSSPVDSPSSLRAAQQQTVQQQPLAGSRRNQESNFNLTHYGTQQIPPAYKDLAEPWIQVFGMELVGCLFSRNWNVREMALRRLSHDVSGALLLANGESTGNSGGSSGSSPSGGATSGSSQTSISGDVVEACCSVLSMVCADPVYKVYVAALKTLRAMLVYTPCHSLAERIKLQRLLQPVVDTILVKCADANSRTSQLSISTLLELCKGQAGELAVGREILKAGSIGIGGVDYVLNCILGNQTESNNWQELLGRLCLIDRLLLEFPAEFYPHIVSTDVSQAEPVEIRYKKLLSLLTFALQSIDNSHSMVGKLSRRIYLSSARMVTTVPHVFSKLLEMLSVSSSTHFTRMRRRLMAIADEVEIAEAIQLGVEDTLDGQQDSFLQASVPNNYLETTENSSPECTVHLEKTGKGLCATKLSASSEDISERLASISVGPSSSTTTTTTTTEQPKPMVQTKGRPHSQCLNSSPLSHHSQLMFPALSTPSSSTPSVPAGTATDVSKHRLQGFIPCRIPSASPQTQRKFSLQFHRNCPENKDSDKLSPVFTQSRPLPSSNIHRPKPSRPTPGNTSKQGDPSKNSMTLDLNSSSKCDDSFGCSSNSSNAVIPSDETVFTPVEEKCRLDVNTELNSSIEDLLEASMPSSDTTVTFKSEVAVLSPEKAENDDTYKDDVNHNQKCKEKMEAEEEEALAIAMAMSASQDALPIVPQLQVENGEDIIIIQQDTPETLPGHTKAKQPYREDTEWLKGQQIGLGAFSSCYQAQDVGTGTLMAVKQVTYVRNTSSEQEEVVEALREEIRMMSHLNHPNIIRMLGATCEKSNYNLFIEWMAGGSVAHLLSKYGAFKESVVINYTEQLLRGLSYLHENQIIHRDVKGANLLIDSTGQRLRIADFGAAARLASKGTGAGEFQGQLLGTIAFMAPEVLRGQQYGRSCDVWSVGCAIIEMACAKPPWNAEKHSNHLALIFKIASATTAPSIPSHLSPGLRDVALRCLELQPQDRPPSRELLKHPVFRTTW
Description: as §1

MAP3K4 = MAP3K4 (Homo sapiens (Human), UniProt Q9Y6R4); conditions: H929 live cell
Description: as §1

MAP3K5 = MAP3K5 (Homo sapiens (Human), UniProt Q99683); conditions: H929 live cell
Description: as §1

MARK2, MARK3 = conditions: H929 live cell
Description: as §1

MSK1 domain1 = MSK1 domain1 (Homo sapiens (Human), UniProt O75582); conditions: H929 live cell
Description: as §1

MSK2 domain1 = MSK2 domain1 (Homo sapiens (Human), UniProt O75676); conditions: H929 live cell
Description: as §1

NEK3 = NEK3 (Homo sapiens (Human), UniProt P51956); conditions: H929 live cell
Description: as §1

NuaK1 = NuaK1 (Homo sapiens (Human), UniProt O60285); conditions: H929 live cell
NuaK1, sequence (O60285 whole entry): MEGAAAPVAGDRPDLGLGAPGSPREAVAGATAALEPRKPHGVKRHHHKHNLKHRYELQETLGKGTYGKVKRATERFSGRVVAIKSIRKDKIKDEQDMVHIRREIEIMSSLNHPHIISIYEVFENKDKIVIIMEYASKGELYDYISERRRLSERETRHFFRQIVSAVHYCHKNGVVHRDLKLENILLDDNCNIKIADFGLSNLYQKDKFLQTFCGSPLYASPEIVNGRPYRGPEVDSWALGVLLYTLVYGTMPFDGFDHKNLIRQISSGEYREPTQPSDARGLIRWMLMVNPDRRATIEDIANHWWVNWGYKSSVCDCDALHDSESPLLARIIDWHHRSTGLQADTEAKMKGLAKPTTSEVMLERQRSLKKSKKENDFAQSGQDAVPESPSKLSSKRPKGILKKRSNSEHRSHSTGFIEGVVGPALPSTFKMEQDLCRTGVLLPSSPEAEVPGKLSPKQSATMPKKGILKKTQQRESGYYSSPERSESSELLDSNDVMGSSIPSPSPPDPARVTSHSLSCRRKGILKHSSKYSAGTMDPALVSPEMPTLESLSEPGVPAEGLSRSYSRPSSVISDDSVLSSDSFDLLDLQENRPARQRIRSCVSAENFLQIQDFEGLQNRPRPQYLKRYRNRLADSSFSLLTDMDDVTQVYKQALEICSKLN
Description: as §1

PAN3 = PAN3 (Homo sapiens (Human), UniProt Q58A45); conditions: H929 live cell
Description: as §1

PIK3C3 = PIK3C3 (Homo sapiens (Human), UniProt Q8NEB9); conditions: H929 live cell, read-out: inhibition (10 μM)
Description: as §1

PIK3CG = PIK3CG (Homo sapiens (Human), UniProt P48736); conditions: H929 live cell
Description: as §1

PKCi = PKCi (Homo sapiens (Human), UniProt P41743); conditions: H929 live cell
Description: as §1

PRP4 = PRP4 (Homo sapiens (Human), UniProt Q13523); conditions: H929 live cell
Description: as §1

RSK1 domain2 = RSK1 domain2 (Homo sapiens (Human), UniProt Q15418); conditions: H929 live cell
Description: as §1

SRPK1 = SRPK1 (Homo sapiens (Human), UniProt Q96SB4); conditions: H929 live cell
Description: as §1

SRPK2 = SRPK2 (Homo sapiens (Human), UniProt P78362); conditions: H929 live cell
Description: as §1

TAO2 = TAO2 (Homo sapiens (Human), UniProt Q9UL54); conditions: H929 live cell
Description: as §1

p38a = p38a (Homo sapiens (Human), UniProt Q16539); conditions: H929 live cell, read-out: % inhibition (range)
How it was run: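 H929 live-cell screen at 10 μM, run in duplicate. Kinase occupancy was assessed via the KiNativ platform, with IC50 determined by mass spectrometry.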

p70S6Kb = p70S6Kb (Homo sapiens (Human), UniProt Q9UBS0); conditions: H929 live cell
p70S6Kb, sequence (Q9UBS0 whole entry): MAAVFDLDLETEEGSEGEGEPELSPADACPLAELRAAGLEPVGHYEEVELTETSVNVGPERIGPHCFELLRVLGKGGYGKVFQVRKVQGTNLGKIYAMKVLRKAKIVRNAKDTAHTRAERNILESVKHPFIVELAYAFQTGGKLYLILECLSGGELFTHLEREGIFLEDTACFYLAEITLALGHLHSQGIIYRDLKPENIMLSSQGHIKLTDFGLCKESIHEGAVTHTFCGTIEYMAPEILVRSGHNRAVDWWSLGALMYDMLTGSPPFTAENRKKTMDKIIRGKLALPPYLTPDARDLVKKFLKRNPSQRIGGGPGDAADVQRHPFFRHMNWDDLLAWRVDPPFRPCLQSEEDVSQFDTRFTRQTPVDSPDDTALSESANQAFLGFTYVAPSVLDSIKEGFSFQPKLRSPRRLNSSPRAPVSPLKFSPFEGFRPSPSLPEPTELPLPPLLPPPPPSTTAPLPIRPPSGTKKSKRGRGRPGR
Description: as §1

Structure (SMILES): Nc1ncc(-c2cccc([N+](=O)[O-])c2F)cc1-c1ccc2c(c1)CCNC2=O [Compound I-9, 6-(2-amino-5-(2-fluoro-3-nitrophenyl)pyridin-3-yl)-3,4-dihydroisoquinolin-1(2H)-one]
- % inhibition (range) (ABL, ARG; 10 μM): 75-90%
- inhibition (10 μM) (ABL, ARG): 75.7%
- inhibition at 10 µM (AKT1; read-out: % inhibition (range)): 0%
- inhibition at 10 µM (AKT1; read-out: inhibition (10 μM)): 32.8%
- inhibition at 10 µM (BARK1; read-out: % inhibition (range)): 0%
- inhibition at 10 µM (BARK1; read-out: inhibition (10 μM)): 2.8%
- inhibition at 10 µM (CDK7; read-out: % inhibition (range)): 75 to 90%
- inhibition at 10 µM (CDK7; read-out: inhibition (10 μM)): 78.2%
- inhibition at 10 µM (CSK; read-out: % inhibition (range)): 0%
- inhibition at 10 µM (CSK; read-out: inhibition (10 μM)): -4.5%
- inhibition at 10 µM (CaMK1d; read-out: % inhibition (range)): 0%
- inhibition at 10 µM (CaMK1d; read-out: inhibition (10 μM)): -2.8%
- % inhibition (range) ([1]; 10 μM): 0.0%
- inhibition (10 μM) [1]: 3.3%
- % inhibition (range) (FYN, SRC, YES; 10 μM): 0.0%
- inhibition (10 μM) (FYN, SRC, YES): 28.3%
- inhibition at 10 µM (GCK): 91.5%
- inhibition at 10 µM (IRAK1; read-out: % inhibition (range)): 75 to 90%
- inhibition at 10 µM (IRAK1; read-out: inhibition (10 μM)): 82.6%
- inhibition at 10 µM (JAK1 domain1; read-out: % inhibition (range)): 0%
- inhibition at 10 µM (JAK1 domain1; read-out: inhibition (10 μM)): -44.3%
- inhibition at 10 µM (KHS1; read-out: % inhibition (range)): 75 to 90%
- inhibition at 10 µM (KHS1; read-out: inhibition (10 μM)): 79.5%
- % inhibition (range) (KSR1, KSR2; 10 μM): 0.0%
- inhibition (10 μM) (KSR1, KSR2): −51.3%
- inhibition at 10 µM (MAP2K6; read-out: % inhibition (range)): 0%
- inhibition at 10 µM (MAP2K6; read-out: inhibition (10 μM)): 6.8%
- inhibition at 10 µM (MAP3K1; read-out: % inhibition (range)): > 90%
- inhibition at 10 µM (MAP3K1; read-out: inhibition (10 μM)): 95.6%
- inhibition at 10 µM (MAP3K4; read-out: % inhibition (range)): 0%
- inhibition at 10 µM (MAP3K4; read-out: inhibition (10 μM)): -9.6%
- inhibition at 10 µM (MAP3K5; read-out: % inhibition (range)): 0%
- inhibition at 10 µM (MAP3K5; read-out: inhibition (10 μM)): 30.6%
- % inhibition (range) (MARK2, MARK3; 10 μM): 50-75%
- inhibition (10 μM) (MARK2, MARK3): 70.2%
- inhibition at 10 µM (MSK1 domain1; read-out: % inhibition (range)): 0%
- inhibition at 10 µM (MSK1 domain1; read-out: inhibition (10 μM)): 2%
- inhibition at 10 µM (MSK2 domain1; read-out: % inhibition (range)): 0%
- inhibition at 10 µM (MSK2 domain1; read-out: inhibition (10 μM)): -36.5%
- inhibition at 10 µM (NEK3; read-out: % inhibition (range)): 0%
- inhibition at 10 µM (NEK3; read-out: inhibition (10 μM)): -42.8%
- inhibition (10 μM) (NuaK1): >90%
- inhibition at 10 µM (NuaK1; read-out: % inhibition (range)): > 90%
- inhibition at 10 µM (NuaK1; read-out: inhibition (10 μM)): 91%
- inhibition at 10 µM (PAN3; read-out: % inhibition (range)): 0%
- inhibition at 10 µM (PAN3; read-out: inhibition (10 μM)): -7.1%
- inhibition at 10 µM (PIK3C3): 51.2%
- inhibition at 10 µM (PIK3CG; read-out: % inhibition (range)): 0%
- inhibition at 10 µM (PIK3CG; read-out: inhibition (10 μM)): 16.3%
- inhibition at 10 µM (PKCi; read-out: % inhibition (range)): 0%
- inhibition at 10 µM (PKCi; read-out: inhibition (10 μM)): 18.5%
- inhibition at 10 µM (PRP4; read-out: % inhibition (range)): 50 to 75%
- inhibition at 10 µM (PRP4; read-out: inhibition (10 μM)): 70.2%
- inhibition at 10 µM (RSK1 domain2; read-out: % inhibition (range)): 0%
- inhibition at 10 µM (RSK1 domain2; read-out: inhibition (10 μM)): 1%
- inhibition at 10 µM (SRPK1; read-out: % inhibition (range)): 0%
- inhibition at 10 µM (SRPK1; read-out: inhibition (10 μM)): 32.8%
- inhibition at 10 µM (SRPK2; read-out: % inhibition (range)): 0%
- inhibition at 10 µM (SRPK2; read-out: inhibition (10 μM)): 18.9%
- inhibition at 10 µM (TAO2; read-out: % inhibition (range)): 35 to 50%
- inhibition at 10 µM (TAO2; read-out: inhibition (10 μM)): 35.3%
- inhibition at 10 µM (p38a): 75 to 90%
- inhibition at 10 µM (p70S6Kb; read-out: % inhibition (range)): 0%
- inhibition at 10 µM (p70S6Kb; read-out: inhibition (10 μM)): -84.5%
